The source made the active and inactive calls. The rule behind the calls is not given here.
Tests used:
[1] = molecular target: T1, Ribosyldihydronicotinamide dehydrogenase [quinone] (Homo sapiens, UniProt P16083); test: Inhibition of QR2 (unknown origin) using MTT and NMeH as substrates
T1 sequence (P16083 whole entry): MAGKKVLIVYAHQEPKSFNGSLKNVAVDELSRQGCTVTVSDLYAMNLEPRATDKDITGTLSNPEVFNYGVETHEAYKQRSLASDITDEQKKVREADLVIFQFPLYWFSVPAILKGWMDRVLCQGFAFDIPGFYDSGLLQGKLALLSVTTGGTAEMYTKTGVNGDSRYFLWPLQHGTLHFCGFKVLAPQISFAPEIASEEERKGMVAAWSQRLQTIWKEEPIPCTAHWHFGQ

[2] = molecular target: T2, Ribosyldihydronicotinamide dehydrogenase [quinone] (Homo sapiens) (UniProt P16083); test: Inhibition of QR2 (unknown origin) using MTT and NMeH as substrates relative to control
T2 sequence (whole entry): T1 sequence (P16083 whole entry)

Oryctolagus cuniculus [3] = organism: Oryctolagus cuniculus; test: (§1) Reduction in intraocular pressure in Chinchilla rabbit assessed as maximal change in intraocular pressure at 0.1% after application of one drop (0.06 ml) of solution containing active compound/vehicle every hour (during 6 hours and after 24 hours) by automatic tonometry; assay type: functional
Oryctolagus cuniculus [4] = organism: Oryctolagus cuniculus; test: as §1, with “maximum effective time required for reduction of intraaocular” for “maximal change in intraocular”; assay type: functional
[5] = Toxicity in rat; settings: in vivo
Oryctolagus cuniculus [6] = organism: Oryctolagus cuniculus; test: as §1, with “maximum effective time required for reduction of intraaocular” for “maximal change in intraocular”, “hours) and measured after 24 hrs post dose” for “hours)”; assay type: functional
Oryctolagus cuniculus [7] = organism: Oryctolagus cuniculus; test: Reduction in intraocular pressure in Chinchilla rabbit assessed as maximal change in intraocular pressure at 0.5% after application of one drop (0.06 ml) of solution containing active compound/vehicle every hour (during 6 hours and after 24 hours) by applanation tonometry; assay type: functional
Oryctolagus cuniculus [8] = organism: Oryctolagus cuniculus; test: Reduction in intraocular pressure in Chinchilla rabbit assessed as maximal change in intraocular pressure at 1% after application of one drop (0.06 ml) of solution containing active compound/vehicle every hour (during 6 hours and after 24 hours) by applanation tonometry; assay type: functional
Oryctolagus cuniculus [9] = organism: Oryctolagus cuniculus; test: (§2) Reduction in intraocular pressure in Chinchilla rabbit assessed as maximal change in intraocular pressure at 0.1% after application of one drop (0.06 ml) of solution containing active compound/vehicle every hour (during 6 hours and after 24 hours) by applanation tonometry; assay type: functional; parameters: scale not given: the % may be the effect or the level left
Oryctolagus cuniculus [10] = organism: Oryctolagus cuniculus; test: as §2, with “maximum effective time required for reduction of intraaocular” for “maximal change in intraocular”; assay type: functional
Oryctolagus cuniculus [11] = organism: Oryctolagus cuniculus; test: as §1, with “maximum effective time required for reduction of intraaocular” for “maximal change in intraocular”, “hours) and measured after 6 hrs post dose” for “hours)”; assay type: functional
[12] = Solubility in water; assay type: physicochemical; settings: buffer
[13] = Inhibition of MT-3 (unknown origin); parameters: species or system Homo sapiens
[14] = Binding affinity to MT-3 (unknown origin); parameters: species or system Homo sapiens
Oryctolagus cuniculus [15] = test: Reduction in intraocular pressure in New Zealand white rabbit at 100 mg/10 ml dosed via topical route measured after 0.5 to 6 hrs post dose by tonometry; assay type: functional; parameters: scale not given: the % may be the effect or the level left

Structure (SMILES) | Activity (Oryctolagus cuniculus [3]) | Time (Oryctolagus cuniculus [4]) | LD50 [5] | Activity (Oryctolagus cuniculus [6]) | other results
CC(=O)NCCc1cn(C)c2c(C)c(C)ccc12 | inactive | inactive | > 2400 mg/kg | inactive | IC50 [1]: 4.5 µM; Imax [2]: 97.4%
CC(=O)Nc1ccc2c(c1)C(CC#N)C(=O)N2C (stereo not drawn) | inactive | inactive | > 2400 mg/kg | inactive | –
CCOC(=O)C(C(=O)O)C1C(=O)Nc2ccc(OC)cc21 (stereo not drawn) | 18% | 4 h | > 2400 mg/kg | inactive | –
COc1ccc2c(c1)c(CCNC(C)=O)cn2C | 8% | 2 h | > 2400 mg/kg | inactive | IC50 [1]: 5.7 µM; Imax [2]: 102%
CC(=O)Nc1cc(NC(C)=O)c2c(c1)C(CC#N)(OC(C)=O)C(=O)N2 (stereo not drawn) | 21% | 2 h | > 2400 mg/kg | inactive | Activity (Oryctolagus cuniculus [7]): Active; Activity (Oryctolagus cuniculus [8]): inactive
CCC(=O)Nc1cc(NC(=O)CC)c2c(c1)C(CC#N)(OC(=O)CC)C(=O)N2 (stereo not drawn) | 15% | 2 h | > 2400 mg/kg | inactive | –
CC(C)(C)NC[C@H](O)COc1nsnc1N1CCOCC1 [TIMOLOL] | 32% | 4 h | – | inactive | Activity (Oryctolagus cuniculus [9]): 11%; Time (Oryctolagus cuniculus [10]): 3 h
CC(=O)Nc1cccc2c1NC(=O)C2CC#N (stereo not drawn) | inactive | inactive | > 2400 mg/kg | inactive | –
N#CCC1C(=O)Nc2ccc(Br)cc21 (stereo not drawn) | inactive | inactive | > 2400 mg/kg | inactive | –
CC(=O)NCCC1C(=O)Nc2ccc(Br)cc21 (stereo not drawn) | inactive | inactive | > 2400 mg/kg | inactive | IC50 [1]: 19 µM; Imax [2]: 29.9%
CC(=O)Nc1ccc2c(c1)C(O)(CC#N)C(=O)N2 (stereo not drawn) | inactive | inactive | > 2400 mg/kg | inactive | –
CC(=O)Nc1ccc2c(c1)C(O)(CC(=O)O)C(=O)N2 (stereo not drawn) | 18% | 2 h | > 2400 mg/kg | inactive | –
COc1ccc2c(c1)C(CC#N)C(=O)N2 (stereo not drawn) | inactive | inactive | > 2400 mg/kg | inactive | –
CC(=O)NCCC1C(=O)Nc2ccc(NC(C)=O)cc21 (stereo not drawn) | inactive | inactive | > 2400 mg/kg | inactive | –
CC(=O)Nc1ccc2c(c1)C(CC#N)C(=O)N2 (stereo not drawn) | 22% | 4 h | > 2400 mg/kg | inactive | –
COc1cc(NC(C)=O)c2c(c1)C(CC#N)(OC(C)=O)C(=O)N2 (stereo not drawn) | 18% | 2 h | > 2400 mg/kg | inactive | –
CC(=O)Nc1ccc2c(c1)C(CC(=O)O)C(=O)N2 (stereo not drawn) | 41% | 4 h | > 2400 mg/kg | – | Activity (Oryctolagus cuniculus [11]): Active; solubility [12]: Soluble
COc1ccc2[nH]cc(CCNC(C)=O)c2c1 [MELATONIN] | 26 - 31% | 3 h | – | inactive | Activity (Oryctolagus cuniculus [9]): 12%; Time (Oryctolagus cuniculus [10]): 4 h; Activity (Oryctolagus cuniculus [8]): inactive
COc1ccc2c(c1)C1(CC1CNC(C)=O)C(=O)N2C (stereo not drawn) | 10% | 2 h | > 2400 mg/kg | inactive | IC50 [1]: 5.1 µM; Imax [2]: 93.9%
CC(=O)NCCC1(O)C(=O)Nc2ccc(NC(C)=O)cc21 (stereo not drawn) | inactive | inactive | > 2400 mg/kg | inactive | –
COC(=O)Nc1ccc2[nH]cc(CCNC(C)=O)c2c1 | – | – | – | – | IC50 [13]: 0.058 µM; Ki [14]: 0.065 µM; Activity (Oryctolagus cuniculus [15]): 45%
COc1ccc2[nH]c(Cl)c(CCNC(C)=O)c2c1 | inactive | inactive | > 2400 mg/kg | inactive | IC50 [1]: 13 µM; Imax [2]: 91%
COc1ccc2c(c1)C1(C(=O)N2)C2CCC(C2)C1CNC(C)=O (stereo not drawn) | inactive | inactive | > 2400 mg/kg | inactive | IC50 [1]: 63 µM; Imax [2]: 59.6%
CCC(=O)Nc1cc(NC(=O)CC)c2c(c1)C(O)(CC#N)C(=O)N2 (stereo not drawn) | 29% | 4 h | > 2400 mg/kg | inactive | –

— ChEMBL document CHEMBL4052743, “Oxindole-based intraocular pressure reducing agents” (Bioorg Med Chem Lett, 2017)
